Source: patent publication EP0333005A1, “Light-sensitive dialkoxybenzenediazonium compound, method for its preparation and its use” (priority 1988, dated 1989)

Assay: Solubility in isopropanol/formic acid
Format: physicochemical
Details: Isopropanol/Ameisensäure (9:1), 20 °C
Experimental: So beträgt die Löslichkeit in der Form des 2,5-Diethoxy-4-thio(4′-methylphenyl)benzoldiazonium-sulfoisophthalats in Isopropanol/Ameisensäure (9:1) bei 20 °C 7,3 g/l, wogegen die entsprechende erfindungsgemäße Verbindung der Formel I sich zu 12,6 g/l bei 20 °C löst. Bei den bekannten Sulfoisophtalaten müssen daher zur besseren Lösung Löslichkeit verleihende Verbindungen zugesetzt werden.

Structure (SMILES)	Löslichkeit (listed as entsprechende erfindungsgemäße Verbindung der Formel I)	Löslichkeit
CCOc1cc(Sc2ccc(C)cc2)c(OCC)cc1[N+]#N [Beispiel 1, 2,5-Diethoxy-4-thio(4′-methylphenyl)benzoldiazonium-sulfosalicylat]	12,6 g/l	–
CCOc1cc(Sc2ccc(C)cc2)c(OCC)cc1[N+]#N [2,5-Diethoxy-4-thio(4′-methylphenyl)benzoldiazonium-sulfoisophthalat, reference compound]	–	7,3 g/l
